Laboratory results: article PMC8456950, “Structure‐Guided Design of G‐Protein‐Coupled Receptor Polypharmacology” (Angewandte Chemie (International Ed. in English), 2021)

Tests used:
[1] = molecular target: T1, Human D2R (Homo sapiens, UniProt P14416); experiment: D2R competition binding ([3H]-spiperone displacement); details: for Ki: read-out: D2R binding affinity Ki; for D2R % displacement at 10 μM: 10 μM compound, mean±SEM of three experiments
T1 construct: expressed in transfected cells; host or cells: CHO-D2R #S20 cell line (membranes)
Experimental: Human D2R competition binding experiments w ere carried out in polypropylene 96-well plates. Each well contained 10 µg of membranes from a CHO-D2R #S20 cell line (protein concentration of 3241 µg/ml), 0.4 nM [3H]-spiperone (80. 2 Ci/mmol, 1 mCi/ml, Perkin […]
The reaction mixture (250 µl/well) was incubated at 25°C for 120 min , after which 200 µL was transferred to a GF/C 96 -well plate (Millipore, Madrid, Spain) pretreated with 0. 5% of PEI and treated with binding buffer (50 mM Tris-HCl, 1 mM EDTA, 5 mM MgCl2, 5 mM KCl, 120 mM NaCl, pH=7.4). The […]
samples were filtered and washed four times with 250 µl wash buffer (50 mM Tris-HCl, 0.9% NaCl, pH=7.4) before measuring in a microplate beta scintillation counter (Microbeta Trilux, PerkinElmer, Madrid, Spain). Three independent exp eriments were carried out to calculate Ki values (n=3). […]

[2] = molecular target: Human A2AAR (Homo sapiens, UniProt P29274); experiment: A2AAR competition binding ([3H]-ZM241385 displacement); parameters: expressed in transfected cells; host or cells: HeLa-A2AAR cell line (membranes); details: for A2AAR % displacement at 10 μM: 10 μM compound, mean±SEM of three experiments; for Ki: radioligand displacement, mean±SEM of three experiments in duplicate, read-out: A2AAR binding affinity Ki
Experimental: Binding assays. Human A2AAR competition binding experiments were carried out in multiscreen GF/C 96-well plates (Millipore, Madrid, Spain) pretreated with binding buffer (50 mM Tris-HCl, 1 mM EDTA, 10 mM MgCl2, 2 U/ml adenosine deaminase, pH=7.4).
Each well contained 5 µg of membranes from a He l a-A2AAR cell line (protein concentration […]
compound studied. Non-specific binding was determined in the presence of 50 µM NE C A (Sigma E2387). The reaction mixture (200 µl/well) was incubated at 25 °C for 30 min, after which it was filtered and washed four times with 250 µl wash buffer (50 mM Tris -HCl, 1 mM EDTA, 10 mM MgCl 2, pH=7. 4) before measuring in a microplate beta scintillation counter (Microbeta Trilux, PerkinElmer, Madrid, Spain). Three independent experiments were carried out to calculate K i values (n=3). […]

[3] = molecular target: T1, Human D2R; experiment: D2R functional cAMP (HTRF) assay in CHO-D2 #S20 cells; assay type: cell-based; details: for EC50: cAMP HTRF, CHO-D2 cells, forskolin 10 µM, mean±SEM n=3; for Emax: relative to the maximal effect of dopamine
Experimental: KB=I C50/(1+([NECA]/EC50 NECA)).
Functional assays for the human D2R were carried out in a CHO-D2 #S20 cell line. 5,000 cells were seed ed in 30 µl of Opti-ME M (Invitrogen 11058) and 500µM IBMX (Sigma 17018) on a 96-well isoplate (PerkinElmer 6005030). The studied compounds wer e then added and incubated for 10 min at 37 °C with gentle stirring (150 rpm). Then, 10 µM […]
forskolin (Sigma 17018) was added and incubated for 5 min at 37 °C with gentle stirring (150 rpm). Reagents (#CISBIO 62AM4PEC) were added and, after incubation for 60 min at rt with gentle stirring (90 rpm) and protected from light, homogeneous time resolved fluorescence (HTRF, λEx: 320 nm; λEm: 620-665 nm) from each well was measured using a Tecan Infinite M1000 Pro. Data were normalized to the maximum effect of dopamine. EC50 and Ema x values were obtained after fitting the d ata to a four -parameter logistic equatio n using Prism V2. 1 (Graph Pad Inc, Chicago, USA) . […]

[4] = molecular target: T2, Human A1AR (Homo sapiens, UniProt P30542); experiment: A1AR competition binding ([3H]-DPCPX); details: 10 µM compound, n=2
T2 construct: expressed in transfected cells; host or cells: CHO-A1AR cell line (membranes)
T2 sequence (P30542 1-326): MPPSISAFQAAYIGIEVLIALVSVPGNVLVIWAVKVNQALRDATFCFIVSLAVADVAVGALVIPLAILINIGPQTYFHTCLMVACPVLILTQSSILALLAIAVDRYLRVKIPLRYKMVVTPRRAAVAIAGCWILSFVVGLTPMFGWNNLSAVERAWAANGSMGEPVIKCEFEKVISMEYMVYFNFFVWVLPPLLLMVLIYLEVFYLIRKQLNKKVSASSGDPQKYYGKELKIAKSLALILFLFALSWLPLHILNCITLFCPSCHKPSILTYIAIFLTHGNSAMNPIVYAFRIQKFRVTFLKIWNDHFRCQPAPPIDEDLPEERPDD
Experimental: Human A1AR competition binding experiments were carried out in multiscreen GF/C 96 -well plates (Millipore, Madrid, Spain) pretreated with assay buffer ( 20 mM Hepes, 100 mM NaCl, 10 mM MgCl2, 2 U/ml adeno sine deamina se, pH=7.4). Each well contained 5 µg of membranes from a CHO-A1AR cell line, 1 nM [3H]-DPCPX (137 Ci/mmol, 1 mCi/Ml, Perkin Elmer NET974001MC), and the compound studied. Non-specific binding was determined in the presence of R-PIA 10 µM (Sigma P4532). The reaction mixture (200 µl/well) was incubated at 25°C for 60 min. The samples were then filtered and washed four times with 250 µl wash buffer (20 mM Hepes, 100 mM NaCl, 10 mM MgCl2, pH=7.4) before measuring in a microplate beta scintillati on counter (Microbeta Trilux, PerkinElmer, Madrid, Spain). Two independent experiments were carried out to calculate K i values (n=2). […]

[5] = radioligand displacement, mean±SEM of three experiments in duplicate

Human A2AAR, sequence (P29274 whole entry): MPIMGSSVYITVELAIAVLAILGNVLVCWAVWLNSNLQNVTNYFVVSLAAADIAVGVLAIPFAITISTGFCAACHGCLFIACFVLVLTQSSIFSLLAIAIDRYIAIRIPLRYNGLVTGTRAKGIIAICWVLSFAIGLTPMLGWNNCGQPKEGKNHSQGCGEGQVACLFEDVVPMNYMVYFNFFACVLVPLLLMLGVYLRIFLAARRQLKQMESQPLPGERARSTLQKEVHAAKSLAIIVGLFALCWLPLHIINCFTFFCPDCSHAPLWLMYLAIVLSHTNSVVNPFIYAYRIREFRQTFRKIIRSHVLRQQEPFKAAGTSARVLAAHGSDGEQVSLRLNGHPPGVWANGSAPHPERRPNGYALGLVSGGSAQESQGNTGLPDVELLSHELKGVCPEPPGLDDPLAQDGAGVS
T1 sequence (P14416 whole entry): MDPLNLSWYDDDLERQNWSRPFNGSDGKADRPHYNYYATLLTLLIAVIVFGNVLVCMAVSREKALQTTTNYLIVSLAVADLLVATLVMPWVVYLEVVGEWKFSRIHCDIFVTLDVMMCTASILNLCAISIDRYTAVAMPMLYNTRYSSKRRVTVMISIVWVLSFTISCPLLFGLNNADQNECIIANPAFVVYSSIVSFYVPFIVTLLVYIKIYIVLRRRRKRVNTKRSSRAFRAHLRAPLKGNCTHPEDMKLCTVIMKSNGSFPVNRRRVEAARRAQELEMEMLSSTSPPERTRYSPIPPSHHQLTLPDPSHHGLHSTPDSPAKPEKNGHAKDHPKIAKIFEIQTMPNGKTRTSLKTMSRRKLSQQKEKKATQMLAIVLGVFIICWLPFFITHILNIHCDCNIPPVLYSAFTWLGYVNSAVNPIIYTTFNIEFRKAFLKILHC

SMILES | Ki [1, 5] | A2AAR % displacement at 10 μM [2] | D2R % displacement at 10 μM [1] | Ki [2] | EC50 [3] | Emax [3] | activity for the A2AAR (in words) ([2]; binding assay) | A1AR % displacement at 10 µM [4] | D2R binding affinity Ki [1, 5]
CN(C)c1ncnc(NC(=O)CCCCN(C)C2Cc3ccccc3C2)n1 [Compound 7] | – | 4 ± 3% | – | – | – | – | – | – | –
CCN(CCC(=O)Nc1nc2c(OC)ccc(OC)c2s1)C1Cc2ccccc2C1 [Compound 40] | 1900 ± 300 nM | – | – | 720 ± 70 nM | 8.9 ± 2.7 µM | 105 ± 5% | – | – | –
CCN(CCC(=O)Nc1nc2c(OC)ccc(C)c2s1)C1Cc2ccccc2C1 [Compound 39] | 2000 ± 300 nM | – | – | 1300 ± 200 nM | 28 ± 9 µM | 107 ± 6% | – | – | –
CN(CCCCNc1ncc2ccn(C)c2n1)C1Cc2ccccc2C1 [Compound 10] | – | 8 ± 3% | – | – | – | – | – | – | –
CNC(=O)CCCCN(C)C1Cc2ccccc2C1 [Compound 13] | 5000 ± 1300 nM | 5±2% | – | – | – | – | no activity | – | –
Cc1cccc2sc(NC(=O)CCCN(C)C3Cc4ccccc4C3)nc12 [Compound 31] | 630 ± 50 nM | – | – | 1600 ± 300 nM | 5.2 ± 2.6 µM | 88 ± 13% | – | – | –
CN(CCCC(=O)Nc1nc2c(Br)cccc2s1)C1Cc2ccccc2C1 [Compound 32] | 880 ± 110 nM | – | – | 670 ± 110 nM | 1.2 ± 0.3 µM | 51 ± 4% | – | – | –
COc1ccc(OC)c2sc(NC(=O)CCN(C)C3Cc4ccccc4C3)nc12 [Compound 37] | 1300 ± 200 nM | – | – | 300 ± 50 nM | 31 ± 12 µM | 103 ± 3% | – | – | –
CCCN(CCCCC(=O)Nc1nc2c(CC)cccc2s1)C1Cc2ccccc2C1 [Compound 24] | 820 ± 180 nM | – | – | 11000 ± 3000 nM | – | – | – | – | –
CCCCCC(=O)Nc1nc2c(C)cccc2s1 [Compound 12] | – | – | 1±2% | 8100 ± 3800 nM | – | – | – | – | –
Cc1ccc(NC(=O)CCCCN(C)C2Cc3ccccc3C2)nc1 [Compound 6] | 670 ± 60 nM | 7 ± 4% | – | – | – | – | – | – | –
Cc1cccc2sc(NC(=O)CCCCN(C)C3Cc4ccccc4C3)nc12 [Compound 2] | 900 ± 80 nM | significant radioligand displacement | significant radioligand displacement | 1200 ± 100 nM | 9.7 ± 3.8 µM | 93 ± 12% | – | – | submicromolar
CN(CCC(=O)Nc1nc2c(Br)cccc2s1)C1Cc2ccccc2C1 [Compound 33] | 2200 ± 300 nM | – | – | 1100 ± 200 nM | 5 ± 2.8 µM | 81 ± 6% | – | – | –
CCCN(CCCCC(=O)Nc1nc2c(OC)ccc(Cl)c2s1)C1Cc2ccccc2C1 [Compound 28] | 900 ± 100 nM | – | – | 470 ± 110 nM | 1.2 ± 0.2 µM | 104 ± 6% | – | – | –
Cc1nc(NC(=O)CCCCN(C)C2Cc3ccccc3C2)sc1C [Compound 5] | 680 ± 50 nM | 3 ± 2% | – | – | – | – | – | – | –

Second part, the molecule after the results:

Ki [1, 5] | A2AAR % displacement at 10 μM [2] | D2R % displacement at 10 μM [1] | Ki [2] | EC50 [3] | Emax [3] | activity for the A2AAR (in words) ([2]; binding assay) | A1AR % displacement at 10 µM [4] | D2R binding affinity Ki [1, 5] | SMILES
430 ± 50 nM | 4 ± 4% | – | – | – | – | – | – | – | Cc1cc(C)n2nc(NCCCCN(C)C3Cc4ccccc4C3)nc2n1 [Compound 11]
290 ± 30 nM | significant radioligand displacement | significant radioligand displacement | 5600 ± 900 nM | – | – | – | – | – | CN(CCCCNc1nc(-c2ccccc2)nc2[nH]ccc12)C1Cc2ccccc2C1 [Compound 3]
200 ± 20 nM | – | – | 2900 ± 600 nM | – | – | – | – | – | CCCN(CCCCC(=O)Nc1nc2c(F)cccc2s1)C1Cc2ccccc2C1 [Compound 23]
290 ± 30 nM | 9 ± 6% | – | – | – | – | – | – | – | CN(CCCCNc1ncc(-c2ccccc2)o1)C1Cc2ccccc2C1 [Compound 9]
340 nM | – | – | 990 ± 240 nM | 0.75 ± 0.07 µM | 81 ± 5% | – | – | – | CCCN(CCCCC(=O)Nc1nc2c(C)cccc2s1)C1Cc2ccccc2C1 [Compound 25]
510 ± 50 nM | – | – | 420 ± 40 nM | 23 ± 9 µM | 82 ± 22% | – | – | – | CN(CCCCC(=O)Nc1nc2c(Cl)cccc2s1)C1Cc2ccccc2C1 [Compound 19]
330 ± 30 nM | significant radioligand displacement | significant radioligand displacement | 8400 ± 1300 nM | – | – | – | – | – | CCOc1cc(C)nc(NCCCCN(C)C2Cc3ccccc3C2)n1 [Compound 4]
80 ± 10 nM | 5 ± 1% | – | – | – | – | – | – | – | CN(CCCCC(=O)Nc1nc2ncccc2[nH]1)C1Cc2ccccc2C1 [Compound 8]
390 ± 30 nM | – | – | 370 ± 50 nM | 26 ± 14 µM | 89 ± 18% | – | 18 ± 3% | – | COc1cccc2sc(NC(=O)CCCCN(C)C3Cc4ccccc4C3)nc12 [Compound 18]
330 ± 20 nM | – | – | 630 ± 80 nM | – | – | – | – | – | CCN(CCCCC(=O)Nc1nc2c(OC)cccc2s1)C1Cc2ccccc2C1 [Compound 21]
